Patent publication US20230265116A1, “DEGRADATION OF (EGFR) BY CONJUGATION OF EGFR INHIBITORS WITH E3 LIGASE LIGAND AND METHODS OF USE” (BEIGENE, LTD., priority 2020, published 2023)

Legend:
[1] = tested on: EGFR Del19/T790M/C797S (BaF3-DTC cells); assay: EGFR degradation HTRF assay, BaF3-DTC cells; type: cell-based; conditions: 16h treatment; for DTC Dmax (%): maximum percentage of degradation; for DC50: read-out: DTC DC50
Method in brief: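 BaF3 (WT, Del19/T790M/C797S) and HCC827 cells exposed 16 h at 37 °C, 5% CO2 to compounds in 0.2% DMSO medium, 8 doses from 10 uM top, 5-fold steps. Lysates read by HTRF (665/620 nm); degradation % vs DMSO control, DC50 from four-parameter fit, Dmax as maximal degradation.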

[2] = molecular target: T1, EGFR L858R/T790M/C797S (BaF3-LTC cells) (Homo sapiens, UniProt P00533, C797S/L858R/T790M); assay: EGFR degradation HTRF assay, BaF3-LTC cells; type: cell-based; conditions: BaF3-LTC, 16h treatment; for Dmax: maximum percentage of degradation, read-out: LTC Dmax (%); for DC50: read-out: LTC DC50
T1 construct: expressed in transfected cells; host or cells: BaF3
T1 sequence (P00533 25-1210 T790M/C797S/L858R): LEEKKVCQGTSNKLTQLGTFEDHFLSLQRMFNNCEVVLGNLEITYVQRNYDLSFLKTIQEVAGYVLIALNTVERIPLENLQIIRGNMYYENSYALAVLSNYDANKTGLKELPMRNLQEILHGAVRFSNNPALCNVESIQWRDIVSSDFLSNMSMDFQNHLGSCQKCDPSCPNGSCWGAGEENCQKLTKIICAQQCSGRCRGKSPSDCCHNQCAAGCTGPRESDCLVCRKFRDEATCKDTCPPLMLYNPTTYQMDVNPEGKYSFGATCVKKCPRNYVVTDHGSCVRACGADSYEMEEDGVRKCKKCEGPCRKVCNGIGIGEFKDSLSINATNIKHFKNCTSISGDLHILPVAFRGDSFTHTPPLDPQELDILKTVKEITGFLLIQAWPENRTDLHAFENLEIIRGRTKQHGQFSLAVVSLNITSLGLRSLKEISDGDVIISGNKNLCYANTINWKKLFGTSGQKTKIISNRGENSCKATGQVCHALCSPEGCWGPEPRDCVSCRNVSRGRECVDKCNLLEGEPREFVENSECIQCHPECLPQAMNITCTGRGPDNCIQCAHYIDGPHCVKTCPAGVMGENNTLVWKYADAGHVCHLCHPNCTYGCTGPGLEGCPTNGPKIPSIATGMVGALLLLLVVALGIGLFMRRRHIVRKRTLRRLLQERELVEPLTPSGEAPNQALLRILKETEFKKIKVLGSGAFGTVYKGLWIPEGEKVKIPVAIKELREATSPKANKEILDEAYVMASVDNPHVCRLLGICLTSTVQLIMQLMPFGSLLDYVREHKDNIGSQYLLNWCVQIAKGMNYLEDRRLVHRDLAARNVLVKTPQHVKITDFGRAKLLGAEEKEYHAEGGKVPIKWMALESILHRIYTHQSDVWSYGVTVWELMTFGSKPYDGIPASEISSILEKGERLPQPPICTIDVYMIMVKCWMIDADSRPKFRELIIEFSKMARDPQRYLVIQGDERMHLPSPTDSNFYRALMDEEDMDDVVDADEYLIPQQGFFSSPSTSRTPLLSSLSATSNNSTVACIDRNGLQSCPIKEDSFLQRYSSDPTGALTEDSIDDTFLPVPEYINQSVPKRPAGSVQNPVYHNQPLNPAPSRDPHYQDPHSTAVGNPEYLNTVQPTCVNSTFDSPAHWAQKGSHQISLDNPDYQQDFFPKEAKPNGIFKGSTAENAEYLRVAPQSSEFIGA
Method in brief: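 EGFR remaining after a 16 h, 37 °C exposure (8 doses, 5-fold steps from 10 uM final, 0.2% DMSO) was quantified by HTRF antibodies in cell lysate. Percent inhibition relative to DMSO control was fitted by four-parameter logistic to give DC50; Dmax denotes maximal degradation.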

| Compound | DC50 [1] [nM] | Dmax [2] [%] | DC50 [2] [nM] | DTC Dmax (%) [1] [%] |
| --- | --- | --- | --- | --- |
| CCc1cc(Nc2ncc(Br)c(Nc3ccc4c(=O)n(C)ccc4c3P(C)(C)=O)n2)c(OC)cc1N1CCC(N2CCN(CCc3cc(F)c(C4CCC(=O)NC4=O)c(F)c3)CC2)CC1 (centres unmarked) [Example 429, 3-(4-(2-(4-(1-(4-((5-bromo-4-((5-(dimethylphosphoryl)-2-methyl-1-oxo-1,2-dihydroisoquinolin-6-yl)amino)pyrimidin-2-yl)amino)-2-ethyl-5-methoxyphenyl)piperidin-4-yl)piperazin-1-yl)ethyl)-2,6-difluorophenyl)piperidine-2,6-dione] | 2.33 | 91.3 | 5.15 | 94.9 |
| CCc1cc(Nc2ncc(Br)c(Nc3ccc4nc(C5CC5)ccc4c3P(C)(C)=O)n2)c(OC)cc1N1CCC(N2CCN(CC3CN(c4ccc5c(c4)CN(C4CCC(=O)NC4=O)C5=O)C3)CC2)CC1 (centres unmarked) [Example 426, 3-(5-(3-((4-(1-(4-((5-bromo-4-((2-cyclopropyl-5-(dimethylphosphoryl)quinolin-6-yl)amino)pyrimidin-2-yl)amino)-2-ethyl-5-methoxyphenyl)piperidin-4-yl)piperazin-1-yl)methyl)azetidin-1-yl)-1-oxoisoindolin-2-yl)piperidine-2,6-dione] | 4.34 | 89 | 6.67 | 91.88 |
| CCc1cc(Nc2ncc(Br)c(Nc3ccc4nc(C(F)(F)F)ccc4c3P(C)(C)=O)n2)c(OC)cc1N1CCC(N2CCN(CCC3CCN(c4cc(F)c(C5CCC(=O)NC5=O)c(F)c4)CC3)CC2)CC1 (centres unmarked) [Example 437, 3-(4-(4-(2-(4-(1-(4-((5-bromo-4-((5-(dimethylphosphoryl)-2-(trifluoromethyl)quinolin-6-yl)amino)pyrimidin-2-yl)amino)-2-ethyl-5-methoxyphenyl)piperidin-4-yl)piperazin-1-yl)ethyl)piperidin-1-yl)-2,6-difluorophenyl)piperdine-2,6-dione] | 14.9 | 91.2 | 28 | 83.88 |
| COc1cc(N2CCC(N3CCN(CCc4ccc(C5CCC(=O)NC5=O)c(F)c4)CC3)CC2)ccc1Nc1ncc(Br)c(Nc2ccc3nccnc3c2P(C)(C)=O)n1 (centres unmarked) [Example 212, 3-(4-(2-(4-(1-(4-((5-bromo-4-((5-(dimethylphosphoryl)quinoxalin-6-yl)amino)pyrimidin-2-yl)amino)-3-methoxyphenyl)piperidin-4-yl)piperazin-1-yl)ethyl)-2-fluorophenyl)piperidine-2,6-dione] | 16.6 | 78.8 | 81.2 | 94.28 |
| CCc1cc(Nc2ncc(Br)c(Nc3ccc4nccnc4c3P(C)(C)=O)n2)c(OC)cc1N1CCC(N2CCN(CCCc3cc(F)c(C4CCC(=O)NC4=O)c(F)c3)CC2)CC1 (centres unmarked) [Example 205, 3-(4-(3-(4-(1-(4-((5-bromo-4-((5-(dimethylphosphoryl)quinoxalin-6-yl)amino)pyrimidin-2-yl)amino)-2-ethyl-5-methoxyphenyl)piperidin-4-yl)piperazin-1-yl)propyl)-2,6-difluorophenyl)piperidine-2,6-dione] | 6.63 | 87.7 | 32.5 | 90.39 |
| CCc1cc(Nc2ncc(Br)c(Nc3ccc4ncn(C)c(=O)c4c3P(C)(C)=O)n2)c(OC)cc1N1CCC(N2CCN(CCc3cc(F)c(C4CCC(=O)NC4=O)c(F)c3)CC2)CC1 (centres unmarked) [Example 428, 3-(4-(2-(4-(1-(4-((5-bromo-4-((5-(dimethylphosphoryl)-3-methyl-4-oxo-3,4-dihydroquinazolin-6-yl)amino)pyrimidin-2-yl)amino)-2-ethyl-5-methoxyphenyl)piperidin-4-yl)piperazin-1-yl)ethyl)-2,6-difluorophenyl)piperidine-2,6-dione] | 1.13 | 93.5 | 3.67 | 95.35 |
| CCc1cc(Nc2ncc(Br)c(Nc3ccc4nccnc4c3P(C)(C)=O)n2)c(OC)cc1N1CCC(N2CCN(C(=O)[C@H]3CCN(c4cccc(C5CCC(=O)NC5=O)c4)C3)CC2)CC1 (stereo partly drawn) [Example 225, 3-(3-((S)-3-(4-(1-(4-((5-bromo-4-((5-(dimethylphosphoryl)quinoxalin-6-yl)amino)pyrimidin-2-yl)amino)-2-ethyl-5-methoxyphenyl)piperidin-4-yl)piperazine-1-carbonyl)pyrrolidin-1-yl)phenyl)piperidine-2,6-dione] | 6.98 | 79.2 | 48.9 | 89.48 |

The remaining molecules from weak to strong by DC50 [1], led by results:

| DC50 [1] [nM] | Dmax [2] [%] | DC50 [2] [nM] | Compound | DTC Dmax (%) [1] [%] |
| --- | --- | --- | --- | --- |
| 3.34 | 87 | 12.3 | CCc1cc(Nc2ncc(Br)c(Nc3ccc4nccnc4c3P(C)(C)=O)n2)c(OC)cc1N1CCC(N2CCN(CC3CN(c4ccc5c(c4)C(=O)N(C4CCC(=O)NC4=O)C5)C3)CC2)CC1 (centres unmarked) [Example 239, 3-(6-(3-((4-(1-(4-((5-bromo-4-((5-(dimethylphosphoryl)quinoxalin-6-yl)amino)pyrimidin-2-yl)amino)-2-ethyl-5-methoxyphenyl)piperidin-4-yl)piperazin-1-yl)methyl)azetidin-1-yl)-1-oxoisoindolin-2-yl)piperidine-2,6-dione] | 88.8 |
| 2.1 | 95.5 | 3.92 | CCc1cc(Nc2ncc(Br)c(Nc3ccc4nc(C)ccc4c3P(C)(C)=O)n2)c(OC)cc1N1CCC(N2CCN(C(=O)[C@H]3C[C@H](Nc4cc(F)c(C5CCC(=O)NC5=O)c(F)c4)C3)CC2)CC1 (some centres unmarked) [Example 209, 3-(4-(((1r,3r)-3-(4-(1-(4-((5-bromo-4-((5-(dimethylphosphoryl)-2-methylquinolin-6-yl)amino)pyrimidin-2-yl)amino)-2-ethyl-5-methoxyphenyl)piperidin-4-yl)piperazine-1-carbonyl)cyclobutyl)amino)-2,6-difluorophenyl)piperidine-2,6-dione] | 96.2 |
| 1.78 | 91.8 | 7.84 | CCc1cc(Nc2ncc(Br)c(Nc3ccc4nc(C)ccc4c3P(C)(C)=O)n2)c(OC)cc1N1CCC(N2CCN(CCN(C)c3cccc4c3CN(C3CCC(=O)NC3=O)C4=O)CC2)CC1 (centres unmarked) [Example 256, 3-(4-((2-(4-(1-(4-((5-bromo-4-((5-(dimethylphosphoryl)-2-methylquinolin-6-yl)amino)pyrimidin-2-yl)amino)-2-ethyl-5-methoxyphenyl)piperidin-4-yl)piperazin-1-yl)ethyl)(methyl)amino)-1-oxoisoindolin-2-yl)piperidine-2,6-dione] | 94.38 |
| 1.23 | 96.1 | 1.46 | CCc1cc(Nc2ncc(Br)c(Nc3ccc4nc(C)ccc4c3P(C)(C)=O)n2)c(OC)cc1N1CCC(N2CCN(C(=O)C3CN(c4ccc5c(c4)C(C)(C)C(=O)N5C4CCC(=O)NC4=O)C3)CC2)CC1 (centres unmarked) [Example 409, 3-(5-(3-(4-(1-(4-((5-bromo-4-((5-(dimethylphosphoryl)-2-methylquinolin-6-yl)amino)pyrimidin-2-yl)amino)-2-ethyl-5-methoxyphenyl)piperidin-4-yl)piperazine-1-carbonyl)azetidin-1-yl)-3,3-dimethyl-2-oxoindolin-1-yl)piperidine-2,6-dione] | 95.3 |
